Measured values taken from US6737383B1, “Herbicidal oxadiazolidines” (priority 1999, dated 2004).

Experiments:
bedstraw = test: Test B pre/postemergence bedstraw; format: in vivo, Galium aparine
In short: (§1)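 Test chemicals in a non-phytotoxic solvent mixture with surfactant were sprayed preemergence onto planted seeds and postemergence onto plants 2 to 18 cm tall (1- to 4-leaf stage). After twelve to sixteen days in a greenhouse, injury was visually rated against untreated controls from 0 (no effect) to 10 (complete control).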

morningglory = test: Test B pre/postemergence morningglory; format: in vivo, Ipomoea hederacea
In short: as §1

purple nutsedge = test: Test B pre/postemergence purple nutsedge; format: in vivo, Cyperus rotundus
In short: as §1

bamyardgrass = test: Test B flood test barnyardgrass; format: in vivo, Echinochloa crus-galli
In short: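 Flood test on plants grown to the 2-leaf stage; treated plants kept in greenhouse twelve to sixteen days, then visually rated against controls on a 0 (no effect) to 10 (complete control) scale.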

[1] = Preemergence, Rate 250 g/ha, scale of 0 to 10 where 0 is no effect and 10 is complete control
[2] = Preemergence, Rate 500 g/ha, scale of 0 to 10 where 0 is no effect and 10 is complete control
[3] = Rate 62 g/ha, Postemergence, scale 0 to 10 (0 no effect, 10 complete control)
[4] = Rate 125 g/ha, Postemergence, scale of 0 to 10 where 0 is no effect and 10 is complete control
[5] = Rate 125 g/ha, Preemergence, scale of 0 to 10 where 0 is no effect and 10 is complete control
[6] = Rate 250 g/ha, Postemergence, scale of 0 to 10 where 0 is no effect and 10 is complete control
[7] = Rate 500 g/ha, Postemergence, scale 0 to 10, 0 no effect, 10 complete control

Cc1ccccc1-n1c(=O)on(C(=O)N(c2ccc3c(c2)CCC3)C(C)C)c1=O [Compound 278]
4: Plant response rating, Morningglory (morningglory; [6]) | Morningglory plant response rating (morningglory; [7])
6: Plant response rating, Bedstraw (bedstraw; [6])
0: Bedstraw plant response rating (bedstraw; [1]) | Plant response rating, Bedstraw (bedstraw; [2]) | Bedstraw plant response rating (bedstraw; [3]) | Bedstraw plant response rating (bedstraw; [4]) | Bedstraw plant response rating (bedstraw; [5]) | Morningglory plant response rating (morningglory; Preemergence, Rate 62 g/ha, scale of 0 to 10 where 0 is no effect and 10 is complete control) | Morningglory plant response rating (morningglory; [1]) | Plant response rating, Morningglory (morningglory; [2]) | Morningglory plant response rating (morningglory; [5]) | Nutsedge plant response rating (purple nutsedge; [1]) | Nutsedge plant response rating (purple nutsedge; [3]) | Nutsedge plant response rating (purple nutsedge; [4]) | Nutsedge plant response rating (purple nutsedge; [5]) | Plant response rating, Nutsedge (purple nutsedge; [6]) | Nutsedge plant response rating (purple nutsedge; [7]) | Barnyardgrass plant response rating (bamyardgrass; Rate 62 g/ha, headed Pre-emergence (flood test species), scale 0 to 10 (0 no effect, 10 complete control)) | Barnyardgrass plant response rating (bamyardgrass; Rate 125 g/ha, Pre-emergence, flood test species, scale 0 to 10 where 0 is no effect and 10 is complete control) | Barnyardgrass plant response rating (bamyardgrass; Rate 250 g/ha, Pre-emergence, flood-test species, scale 0 to 10, 0 is no effect, 10 is complete control) | Barnyardgrass plant response rating (bamyardgrass; Rate 500 g/ha, Pre-emergence, flood test species, scale 0 to 10 (0 no effect, 10 complete control))
8: Bedstraw plant response rating (bedstraw; [7])
3: Morningglory plant response rating (morningglory; [3]) | Morningglory plant response rating (morningglory; [4])
